According to PubChem BioAssay (NCI):
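48-hour exposure; five concentrations; linearly interpolated endpoints. GI50 = concentration required for 50% inhibition of growth. At the TGI there is no net growth.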

Columns and labels:
Test in all cases: NCI tumour cell line growth inhibition, 48 h
786-0 renal = tested on: 786-0 renal
A498 renal = tested on: A498 renal
A549 NSCLC = tested on: A549 NSCLC
ACHN renal = tested on: ACHN renal
BT-549 breast = tested on: BT-549 breast
CAKI-1 renal = tested on: CAKI-1 renal
CCRF-CEM leukemia = tested on: CCRF-CEM leukemia
COLO 205 colon = tested on: COLO 205 colon
DU-145 prostate = tested on: DU-145 prostate
EKVX NSCLC = tested on: EKVX NSCLC
HCC-2998 colon = tested on: HCC-2998 colon
HCT-116 colon = tested on: HCT-116 colon
HCT-15 colon = tested on: HCT-15 colon
HL-60(TB) leukemia = tested on: HL-60(TB) leukemia
HOP-62 NSCLC = tested on: HOP-62 NSCLC
HOP-92 NSCLC = tested on: HOP-92 NSCLC
HS 578T breast = tested on: HS 578T breast
HT29 colon = tested on: HT29 colon
IGROV1 ovarian = tested on: IGROV1 ovarian
K-562 leukemia = tested on: K-562 leukemia
KM12 colon = tested on: KM12 colon
LOX IMVI melanoma = tested on: LOX IMVI melanoma
M14 melanoma = tested on: M14 melanoma
MALME-3M melanoma = tested on: MALME-3M melanoma
MCF7 breast = tested on: MCF7 breast
MDA-MB-231 breast = tested on: MDA-MB-231 breast
MDA-MB-435 = tested on: MDA-MB-435
MOLT-4 leukemia = tested on: MOLT-4 leukemia
NCI-H226 lung = tested on: NCI-H226 lung
NCI-H23 lung = tested on: NCI-H23 lung
NCI-H460 lung = tested on: NCI-H460 lung
NCI-H522 lung = tested on: NCI-H522 lung
NCI/ADR-RES ovarian = tested on: NCI/ADR-RES ovarian
OVCAR-3 ovarian = tested on: OVCAR-3 ovarian
OVCAR-4 ovarian = tested on: OVCAR-4 ovarian
OVCAR-5 ovarian = tested on: OVCAR-5 ovarian
OVCAR-8 ovarian = tested on: OVCAR-8 ovarian
PC-3 prostate = tested on: PC-3 prostate
RPMI-8226 leukemia = tested on: RPMI-8226 leukemia
RXF 393 renal = tested on: RXF 393 renal
SF-268 CNS = tested on: SF-268 CNS
SF-295 CNS = tested on: SF-295 CNS
SF-539 CNS = tested on: SF-539 CNS
SK-MEL-2 melanoma = tested on: SK-MEL-2 melanoma
SK-MEL-28 melanoma = tested on: SK-MEL-28 melanoma
SK-MEL-5 melanoma = tested on: SK-MEL-5 melanoma
SK-OV-3 ovarian = tested on: SK-OV-3 ovarian
SN12C renal = tested on: SN12C renal
SNB-19 CNS = tested on: SNB-19 CNS
SNB-75 CNS = tested on: SNB-75 CNS
SR leukemia = tested on: SR leukemia
SW-620 colon = tested on: SW-620 colon
T-47D breast = tested on: T-47D breast
TK-10 renal = tested on: TK-10 renal
U251 CNS = tested on: U251 CNS
UACC-257 melanoma = tested on: UACC-257 melanoma
UACC-62 melanoma = tested on: UACC-62 melanoma
UO-31 renal = tested on: UO-31 renal

COc1cccc(-n2ncc3c(N/N=C/c4cccc(F)c4)ncnc32)c1
GI50 (786-0 renal): 7.31 µM
TGI (786-0 renal): 20.8 µM
GI50 (A498 renal): 5.13 µM
TGI (A498 renal): 11.2 µM
GI50 (A549 NSCLC): 4.94 µM
TGI (A549 NSCLC): 10.6 µM
GI50 (ACHN renal): 7.54 µM
TGI (ACHN renal): > 20.3 µM
GI50 (BT-549 breast): 19.5 µM
TGI (BT-549 breast): > 25 µM
GI50 (CAKI-1 renal): 8.59 µM
TGI (CAKI-1 renal): 24.6 µM
GI50 (CCRF-CEM leukemia): > 25 µM
TGI (CCRF-CEM leukemia): > 25 µM
GI50 (COLO 205 colon): 8.06 µM
TGI (COLO 205 colon): > 22 µM
GI50 (DU-145 prostate): 9.01 µM
TGI (DU-145 prostate): > 24.1 µM
GI50 (EKVX NSCLC): 10.2 µM
TGI (EKVX NSCLC): > 25 µM
GI50 (HCC-2998 colon): 20.3 µM
TGI (HCC-2998 colon): > 25 µM
GI50 (HCT-116 colon): 5.76 µM
TGI (HCT-116 colon): 11.3 µM
GI50 (HCT-15 colon): 14.9 µM
TGI (HCT-15 colon): > 25 µM
GI50 (HL-60(TB) leukemia): > 25 µM
TGI (HL-60(TB) leukemia): > 25 µM
GI50 (HOP-62 NSCLC): 5.87 µM
TGI (HOP-62 NSCLC): 11.4 µM
GI50 (HOP-92 NSCLC): 5.59 µM
TGI (HOP-92 NSCLC): 14.2 µM
GI50 (HS 578T breast): 6.02 µM
TGI (HS 578T breast): 15.6 µM
GI50 (HT29 colon): 12.9 µM
TGI (HT29 colon): > 25 µM
GI50 (IGROV1 ovarian): 13.9 µM
TGI (IGROV1 ovarian): > 25 µM
GI50 (K-562 leukemia): > 25 µM
TGI (K-562 leukemia): > 25 µM
GI50 (KM12 colon): 14.7 µM
TGI (KM12 colon): > 25 µM
GI50 (LOX IMVI melanoma): 9.44 µM
TGI (LOX IMVI melanoma): > 25 µM
GI50 (M14 melanoma): 11.3 µM
TGI (M14 melanoma): > 25 µM
GI50 (MALME-3M melanoma): 7.96 µM
TGI (MALME-3M melanoma): > 25 µM
GI50 (MCF7 breast): > 14.6 µM
TGI (MCF7 breast): > 25 µM
GI50 (MDA-MB-231 breast): 5.78 µM
TGI (MDA-MB-231 breast): 15.6 µM
GI50 (MDA-MB-435): 10.1 µM
TGI (MDA-MB-435): > 25 µM
GI50 (MOLT-4 leukemia): > 25 µM
TGI (MOLT-4 leukemia): > 25 µM
GI50 (NCI-H226 lung): 9.16 µM
TGI (NCI-H226 lung): 24.5 µM
GI50 (NCI-H23 lung): 11.3 µM
TGI (NCI-H23 lung): > 25 µM
GI50 (NCI-H460 lung): 6.05 µM
TGI (NCI-H460 lung): 12.8 µM
GI50 (NCI-H522 lung): > 15.6 µM
TGI (NCI-H522 lung): > 25 µM
GI50 (NCI/ADR-RES ovarian): 8.11 µM
TGI (NCI/ADR-RES ovarian): > 25 µM
GI50 (OVCAR-3 ovarian): 5.42 µM
TGI (OVCAR-3 ovarian): 10.1 µM
GI50 (OVCAR-4 ovarian): 6.28 µM
TGI (OVCAR-4 ovarian): 13.5 µM
GI50 (OVCAR-5 ovarian): > 23.2 µM
TGI (OVCAR-5 ovarian): > 25 µM
GI50 (OVCAR-8 ovarian): 7.16 µM
TGI (OVCAR-8 ovarian): 18 µM
GI50 (PC-3 prostate): 9.86 µM
TGI (PC-3 prostate): > 25 µM
GI50 (RPMI-8226 leukemia): > 25 µM
TGI (RPMI-8226 leukemia): > 25 µM
GI50 (RXF 393 renal): 5.57 µM
TGI (RXF 393 renal): 12.7 µM
GI50 (SF-268 CNS): 8.46 µM
TGI (SF-268 CNS): > 22 µM
GI50 (SF-295 CNS): 8.19 µM
TGI (SF-295 CNS): > 17.6 µM
GI50 (SF-539 CNS): 12.5 µM
TGI (SF-539 CNS): > 25 µM
GI50 (SK-MEL-2 melanoma): 12.3 µM
TGI (SK-MEL-2 melanoma): > 25 µM
GI50 (SK-MEL-28 melanoma): 8.64 µM
TGI (SK-MEL-28 melanoma): > 25 µM
GI50 (SK-MEL-5 melanoma): 18.8 µM
TGI (SK-MEL-5 melanoma): > 25 µM
GI50 (SK-OV-3 ovarian): 4.8 µM
TGI (SK-OV-3 ovarian): 9.14 µM
GI50 (SN12C renal): 6.74 µM
TGI (SN12C renal): > 19.6 µM
GI50 (SNB-19 CNS): 12.3 µM
TGI (SNB-19 CNS): > 25 µM
GI50 (SNB-75 CNS): 5.05 µM
TGI (SNB-75 CNS): 12.4 µM
GI50 (SR leukemia): 13.6 µM
TGI (SR leukemia): > 25 µM
GI50 (SW-620 colon): 16.8 µM
TGI (SW-620 colon): > 25 µM
GI50 (T-47D breast): 6.41 µM
TGI (T-47D breast): > 19.2 µM
GI50 (TK-10 renal): 6.93 µM
TGI (TK-10 renal): 18.9 µM
GI50 (U251 CNS): 4.66 µM
TGI (U251 CNS): 9.04 µM
GI50 (UACC-257 melanoma): 16.4 µM
TGI (UACC-257 melanoma): > 25 µM
GI50 (UACC-62 melanoma): 11.1 µM
TGI (UACC-62 melanoma): > 25 µM
GI50 (UO-31 renal): 6.73 µM
TGI (UO-31 renal): > 16.4 µM
